The structures appear in SMILES notation.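 Results reflect a 48-hour exposure of cells in 96-well plates to compound at five concentrations. GI50 marks 50% less growth.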 The source made the active and inactive calls. No stated cut-off is given here; in the data, active = GI50 up to about 1.1 µM and inactive = higher.

Test systems include A549; SK-MEL-2; HOP-92; CAKI-1; Malme-3M; MCF7; RPMI-8226; OVCAR-3; SR; HCT-15; Hs-578T; 786-0; MDA-MB-231; UACC-62; SF-295; LOX IMVI; COLO 205; KM12; SNB-75; A498.
What all share (experiment): NCI anticancer screen, dose series, 48 h

Regarding `NS(=O)(=O)c1nnc(NC(=O)c2cccc([N+](=O)[O-])c2)s1`, the GI50 in the test on A549 is > 100 µM (inactive); in the test with SK-MEL-2 it was > 100 µM (inactive); in the test on HOP-92 it was 44.9 µM (inactive); in the test with CAKI-1, > 100 µM (inactive); in the test with Malme-3M, > 100 µM (inactive); in the test with MCF7, > 100 µM (inactive). In addition, the GI50 in the test with RPMI-8226 was > 100 µM (inactive); with OVCAR-3, > 100 µM (inactive); in the test with SR, > 100 µM (inactive); in the test with HCT-15, greater than 100 µM; in the test on Hs-578T, > 100 µM (inactive); in the test on 786-0, > 100 µM (inactive). Moreover, the GI50 with MDA-MB-231, with UACC-62, with SF-295, in the test on LOX IMVI, with COLO 205 and in the test on KM12 was > 100 µM (inactive) each time.
Regarding `CC1OC2OC3C(OCC(O)C3O)OC(=O)[C@]34CCC(C)(C)CC3C3=CCC5[C@@]6(C)C[C@H](O)[C@H](OC7OC(CO)C(O)C(O)C7OC7OCC(OC(=O)CC(C)(O)CC(=O)OC1C(OC1OC(CO)C(O)C(O)C1O)C2O)C(O)C7O)[C@@](C)(CO)C6CC[C@@]5(C)[C@]3(C)CC4` (stereo partly specified), the GI50 was 3.85 µM (inactive) in the test with A549; 4.18 µM (inactive) in the test with SK-MEL-2; 10.3 µM (inactive) in the test on HOP-92; 6.41 µM (inactive) in the test on CAKI-1; 7.87 µM (inactive) with Malme-3M; 11.5 µM (inactive) in the test with SNB-75. Also, the GI50 in the test on MCF7 is 12 µM (inactive); in the test on RPMI-8226, 10.6 µM (inactive); with OVCAR-3 it was 9.77 µM (inactive); with SR, 7 µM (inactive); in the test on HCT-15 it was 12 µM; in the test on Hs-578T, 14.6 µM (inactive). For the same molecule, the GI50 in the test with 786-0 is 4.83 µM (inactive); with MDA-MB-231, 10.9 µM (inactive); in the test on UACC-62, 9.73 µM (inactive); in the test with SF-295 it was 4.06 µM (inactive); with LOX IMVI, 10.6 µM (inactive); in the test with COLO 205, 2.3 µM (inactive). For the same molecule, the GI50 in the test on KM12 was 8.53 µM (inactive).
On to `CCCCc1ccc(-n2sc3ncccc3c2=O)cc1`, for which the GI50 with A549 is 14 µM (inactive); in the test with SK-MEL-2, 12.2 µM (inactive); in the test with Malme-3M, 3.96 µM (inactive); in the test on SNB-75, 22.4 µM (inactive); with MCF7, 23.8 µM (inactive); in the test with RPMI-8226, 8.02 µM (inactive). Also, the GI50 in the test on OVCAR-3 is 10.2 µM (inactive); with SR it was 4.72 µM (inactive); in the test with HCT-15, 5.52 µM; with Hs-578T it was 15.7 µM (inactive); in the test with 786-0, 9.42 µM (inactive); with MDA-MB-231 it was 15.6 µM (inactive). Further, the GI50 in the test on UACC-62 is 12.4 µM (inactive); in the test on SF-295, 12.6 µM (inactive); in the test on LOX IMVI, 5.66 µM (inactive); in the test with COLO 205, 17.3 µM (inactive); in the test with KM12, 13.4 µM (inactive).
In the case of `CC(C)CCCC(C)[C@H]1CCC2[C@@H]3CCC4Cc5nc6c(nc5C[C@]4(C)C3CC[C@@]21C)CC1CC[C@@H]2C(C[C@@H](O)[C@@]3(C)C2C[C@@H]2OC4(CCC(C)CO4)C(C)[C@@H]23)[C@@]1(C)C6` (stereo partly specified), the GI50 in the test with A549, in the test with HOP-92, in the test with SNB-75, in the test with MCF7, with RPMI-8226 and in the test with OVCAR-3 was > 100 µM (inactive) throughout. In addition, the GI50 with SR was > 100 µM (inactive); in the test with HCT-15 it was greater than 100 µM; with Hs-578T, > 100 µM (inactive); in the test on 786-0, > 100 µM (inactive); with MDA-MB-231, > 100 µM (inactive); with UACC-62 it was > 100 µM (inactive). Besides, the GI50 in the test on SF-295, in the test on COLO 205 and in the test with KM12 was > 100 µM (inactive) throughout.
For `O=C(O)c1ccc2c(c1)CC1(C2)Cc2ccccc2C1=O` (stereo unspecified), the GI50 in the test with A549 was > 100 µM (inactive); with SK-MEL-2, > 100 µM (inactive); in the test on HOP-92 it was 25.2 µM (inactive); in the test on Malme-3M, > 100 µM (inactive); with SNB-75, > 100 µM (inactive); in the test with MCF7, > 100 µM (inactive). In addition, the GI50 in the test on RPMI-8226 was > 100 µM (inactive); in the test on OVCAR-3, > 100 µM (inactive); with SR, > 100 µM (inactive); in the test on HCT-15, greater than 100 µM; in the test with Hs-578T, > 100 µM (inactive); in the test on 786-0, > 100 µM (inactive). Moreover, the GI50 in the test on MDA-MB-231, with UACC-62, in the test on SF-295, in the test with LOX IMVI, in the test with COLO 205 and with KM12 was > 100 µM (inactive) in each case.
As to `CC(C)OCC(O)COc1cc(=O)oc2ccccc12` (stereo unspecified), the GI50 with A549, in the test on SK-MEL-2, with HOP-92, in the test with CAKI-1, with Malme-3M and with MCF7 was > 100 µM (inactive) in each case. The GI50 was > 100 µM (inactive) in the test with RPMI-8226; > 100 µM (inactive) in the test on OVCAR-3; > 100 µM (inactive) in the test with SR; greater than 100 µM with HCT-15; > 100 µM (inactive) with Hs-578T; > 100 µM (inactive) with 786-0. Also, the GI50 in the test with MDA-MB-231, with UACC-62, in the test on SF-295, in the test on LOX IMVI, in the test on COLO 205 and with KM12 was > 100 µM (inactive) throughout.
On to `CC(C)(C)C1(O)C=C(O)C(=O)N1NC(=O)c1ccccc1Nc1ccccc1` (stereo unspecified), for which the GI50 in the test with A549 was > 100 µM (inactive); with SK-MEL-2, 24.7 µM (inactive); with HOP-92 it was 38.7 µM (inactive); with CAKI-1, > 100 µM (inactive); in the test with Malme-3M, 32.7 µM (inactive); in the test with SNB-75, 61.4 µM (inactive). The GI50 in the test with MCF7 was 33.3 µM (inactive); in the test on RPMI-8226, 54.2 µM (inactive); with OVCAR-3, 6.84 µM (inactive); in the test with A498, 32.1 µM (inactive); in the test with HCT-15, 22.9 µM; with Hs-578T, 87.1 µM (inactive). The GI50 is 56.9 µM (inactive) in the test with 786-0; 42 µM (inactive) in the test on MDA-MB-231; 24.8 µM (inactive) in the test on UACC-62; 25.2 µM (inactive) in the test on SF-295; 17.5 µM (inactive) in the test with LOX IMVI; 29 µM (inactive) in the test with COLO 205. Also, the GI50 in the test with KM12 is 40.9 µM (inactive).
As to `Cc1ncc2c(=O)c3c(oc2n1)c1ccccc1n3Cc1ccccc1`, the GI50 with A549 was > 100 µM (inactive); in the test with CAKI-1, > 100 µM (inactive); with Malme-3M, > 100 µM (inactive); in the test with SNB-75 it was 29.5 µM (inactive); in the test on MCF7, > 100 µM (inactive); with RPMI-8226 it was > 100 µM (inactive). Further, the GI50 in the test on OVCAR-3 is > 100 µM (inactive); with SR it was > 100 µM (inactive); with HCT-15, greater than 100 µM; in the test with Hs-578T, > 100 µM (inactive); in the test on 786-0 it was 84.9 µM (inactive); with MDA-MB-231, > 100 µM (inactive). Besides, the GI50 in the test with UACC-62 is 27 µM (inactive); with SF-295, > 100 µM (inactive); with LOX IMVI, > 100 µM (inactive); with COLO 205, > 100 µM (inactive); with KM12 it was > 100 µM (inactive).
Consider `N#Cc1c(-c2ccc(Cl)cc2)c2c(n(C3OC(CO)C(O)C(O)C3O)c1=S)CCC2` (stereo unspecified), for which the GI50 in the test with A549 was 31.7 µM (inactive); in the test with SK-MEL-2, 34.5 µM (inactive); in the test on HOP-92, 24.3 µM (inactive); with CAKI-1, 30.2 µM (inactive); with Malme-3M it was 26.2 µM (inactive); with SNB-75, 19.8 µM (inactive). The GI50 with MCF7 is 20.9 µM (inactive); with RPMI-8226 it was 45.8 µM (inactive); in the test with OVCAR-3 it was 28 µM (inactive); in the test with SR it was 47 µM (inactive); in the test on HCT-15, 36.6 µM; in the test with Hs-578T, 31.7 µM (inactive). In addition, the GI50 in the test with 786-0 is 30.9 µM (inactive); in the test on MDA-MB-231 it was 36.9 µM (inactive); in the test with UACC-62 it was 17.1 µM (inactive); in the test with SF-295, > 10 µM (inactive); with LOX IMVI, 16.9 µM (inactive); in the test on COLO 205 it was 29.6 µM (inactive). In addition, the GI50 in the test on KM12 was 41.9 µM (inactive).
`Cc1ccc(S(=O)(=O)NNC(=O)c2cc(C)ccc2NC(=O)C23CC4CC(CC(C4)C2)C3)cc1`: the GI50 in the test with A549 is 29.4 µM (inactive); with HOP-92 it was 21.6 µM (inactive); in the test with CAKI-1 it was 46 µM (inactive); in the test with Malme-3M, 23.5 µM (inactive); in the test on MCF7, 37.2 µM (inactive); in the test on RPMI-8226 it was > 100 µM (inactive). Moreover, the GI50 in the test with OVCAR-3 is 34.4 µM (inactive); with SR, 84.5 µM (inactive); with HCT-15, 22.7 µM; with Hs-578T, 32.9 µM (inactive); in the test with 786-0, 21.9 µM (inactive); with MDA-MB-231 it was 41.6 µM (inactive). Moreover, the GI50 was 39.7 µM (inactive) with UACC-62; 45.5 µM (inactive) in the test with SF-295; > 100 µM (inactive) in the test with LOX IMVI; > 100 µM (inactive) in the test with COLO 205; 75.3 µM (inactive) with KM12.
Turning to `O=C(CNc1ccccc1[N+](=O)[O-])Nn1cnc2ccc(S(=O)(=O)Nc3ccccc3[N+](=O)[O-])cc2c1=O`, the GI50 in the test with A549, in the test with SK-MEL-2, in the test on HOP-92, with CAKI-1, with Malme-3M and with SNB-75 was > 100 µM (inactive) each time. For the same molecule, the GI50 with MCF7 is > 100 µM (inactive); in the test with RPMI-8226 it was > 100 µM (inactive); in the test with OVCAR-3 it was > 100 µM (inactive); with SR, > 100 µM (inactive); in the test with HCT-15, greater than 100 µM; in the test on Hs-578T, 22.1 µM (inactive). Moreover, the GI50 in the test on 786-0, in the test on MDA-MB-231, in the test on UACC-62, in the test with SF-295, in the test with LOX IMVI and with COLO 205 was > 100 µM (inactive) each time. The GI50 in the test on KM12 was > 100 µM (inactive).
